Data: US11839613B2, “Pyrimidine derivatives as PGE2 receptor modulators” (IDORSIA PHARMACEUTICALS LTD, priority 2017, dated 2023)

Key:
PTGER4 (EP4) = PTGER4 (EP4) (Homo sapiens (Human), UniProt P35408); test: cell-based
Text: The system is based on the Enzyme Fragment Complementation Technology. Two complementing fragments of the b-galactosidase enzyme are expressed within stably transfected cells. The larger portion of b-gal, termed EA for Enzyme Acceptor, is fused to the C-terminus of b-arrestin 2. The smaller fragment, termed ProLink™ tag, is fused to PTGER2 (EP2) or PTRGER4 (EP4) at the C-terminus. Upon activation, b-arrestin is recruited which forces the interaction of ProLink and EA, allowing complementation of the two fragments of b-gal and the formation of a functional enzyme which is capable of hydrolysing the substrate and generating a chemiluminescent signal.
Plate is incubated at 37° C., 5% CO2 for 24 hours.
Stock solutions of test compounds are made at a concentration of 10 mM in DMSO, and serially diluted in DMSO to concentrations required for inhibition dose response curves (tested concentration range 10 μM-2 nM or 1 μM-0.2 nM).
Five microliters of diluted compounds are transferred into the assay plate. Plate is pre-incubated 15 minutes at 37° C. Then five microliters of PGE2 (final conc. 20 nM) are transferred into the assay plate. Plate is incubated 120 minutes at 37° C.
Twelve I of reagent are transferred to the assay plate and incubate for 1 hour at RT in the dark. Luminescence counts are read on a BMG Fluostar Optima reader according to manufacturer's instructions.
For each compound concentration calculate of the percentage of activity compared to DMSO control value as average ±STDEV. (each concentration is measured in duplicate)

PTGER2 (EP2) = PTGER2 (EP2) (Homo sapiens (Human), UniProt P43116); test: hEP2 b-arrestin assay (PathHunter HEK 293 PTGER2 b-arrestin cells); format: cell-based; details: antagonistic activity, beta-arrestin assay; read-out: hEP2 b-arr IC50
Procedure: Plate is pre-incubated 15 minutes at 37° C. Then five microliters of PGE2 (final conc. 5 μM) are transferred into the assay plate. Plate is incubated 120 minutes at 37° C.
(each concentration is measured in duplicate)

Sequence of PTGER2 (EP2) (P43116 whole entry): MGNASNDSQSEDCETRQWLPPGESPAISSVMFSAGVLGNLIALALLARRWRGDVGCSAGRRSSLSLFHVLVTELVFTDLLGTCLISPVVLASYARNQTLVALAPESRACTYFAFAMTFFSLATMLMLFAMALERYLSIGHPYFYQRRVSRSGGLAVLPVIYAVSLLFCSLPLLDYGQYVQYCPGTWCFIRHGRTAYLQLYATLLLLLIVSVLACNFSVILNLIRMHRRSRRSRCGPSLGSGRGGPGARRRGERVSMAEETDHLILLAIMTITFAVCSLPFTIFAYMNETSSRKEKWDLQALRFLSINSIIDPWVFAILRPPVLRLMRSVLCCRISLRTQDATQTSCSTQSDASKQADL
Sequence of PTGER4 (EP4) (P35408 whole entry): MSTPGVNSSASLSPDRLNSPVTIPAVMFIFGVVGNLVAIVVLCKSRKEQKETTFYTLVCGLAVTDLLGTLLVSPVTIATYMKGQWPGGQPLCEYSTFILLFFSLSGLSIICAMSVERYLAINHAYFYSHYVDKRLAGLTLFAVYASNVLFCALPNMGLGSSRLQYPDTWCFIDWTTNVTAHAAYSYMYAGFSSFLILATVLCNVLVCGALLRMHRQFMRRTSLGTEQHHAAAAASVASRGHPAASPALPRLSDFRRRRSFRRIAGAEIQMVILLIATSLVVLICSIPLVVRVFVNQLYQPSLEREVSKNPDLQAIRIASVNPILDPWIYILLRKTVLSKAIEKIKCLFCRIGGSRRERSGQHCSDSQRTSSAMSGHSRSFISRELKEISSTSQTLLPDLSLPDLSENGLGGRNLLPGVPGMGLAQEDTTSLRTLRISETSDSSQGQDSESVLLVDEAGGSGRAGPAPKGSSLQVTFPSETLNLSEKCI

IC50 (PTGER4 (EP4))	IC50 (PTGER2 (EP2))	SMILES
97 nM	66 nM	COc1cc2c(cc1CCNc1cc(-c3ccc(CC(=O)O)c(OC(F)(F)F)c3)ncn1)OCCO2 [Example 450, (4-{6-[2-(7-Methoxy-2,3-dihydro-benzo[1,4]dioxin-6-yl)-ethylamino]-pyrimidin-4-yl}-2-trifluoromethoxy-phenyl)-acetic acid]
385 nM	577 nM	CCOc1c(C(=O)O)ccc(-c2cc(NCCc3cc(F)c4sccc4c3)ncn2)c1F [Example 552, 2-Ethoxy-3-fluoro-4-{6-[2-(7-fluoro-benzo[b]thiophen-5-yl)-ethylamino]-pyrimidin-4-yl}-benzoic acid]
22 nM	84 nM	CCOc1cc(-c2cc(NCCc3ccc4sccc4c3F)ncn2)ccc1OCCC(=O)O [Example 421, 3-(2-Ethoxy-4-{6-[2-(4-fluoro-benzo[b]thiophen-5-yl)-ethylamino]-pyrimidin-4-yl}-phenoxy)-propionic acid]
44 nM	514 nM	CN1C(=O)NCc2ccc(-c3cc(NCCc4cc(F)c5sccc5c4)ncn3)cc21 [Example 530, 7-{6-[2-(7-Fluoro-benzo[b]thiophen-5-yl)-ethylamino]-pyrimidin-4-yl}-1-methyl-3,4-dihydro-1H-quinazolin-2-one]
13 nM	50 nM	CCOc1cc(-c2cc(NCCc3ccc4ccsc4c3C)ncn2)sc1C(=O)O [Example 376, 3-Ethoxy-5-{6-[2-(7-methyl-benzo[b]thiophen-6-yl)-ethylamino]-pyrimidin-4-yl}-thiophene-2-carboxylic acid]
571 nM	564 nM	COC(=O)c1sc(-c2cc(NCCc3ccc4ccccc4c3C)ncn2)cc1O [Example 468, 3-Hydroxy-5-{6-[2-(1-methyl-naphthalen-2-yl)-ethylamino]-pyrimidin-4-yl}-thiophene-2-carboxylic acid methyl ester]
264 nM	428 nM	CCOc1cc(-c2cc(NCCc3cc(C)c4sccc4c3)ncn2)ccc1C(=O)O [Example 476, 2-Ethoxy-4-{6-[2-(7-methyl-benzo[b]thiophen-5-yl)-ethylamino]-pyrimidin-4-yl}-benzoic acid]
113 nM	153 nM	COc1c(CCNc2cc(-c3ccc(CC(=O)O)c(CC(C)C)c3)ncn2)cc2ccsc2c1F [Example 410, (4-{6-[2-(7-Fluoro-6-methoxy-benzo[b]thiophen-5-yl)-ethylamino]-pyrimidin-4-yl}-2-isobutyl-phenyl)-acetic acid]
17 nM	16 nM	CCCc1cc(-c2cc(NCCc3c(OC)cc4ccccc4c3C)ncn2)ccc1C(=O)O [Example 380, 4-{6-[2-(3-Methoxy-1-methyl-naphthalen-2-yl)-ethylamino]-pyrimidin-4-yl}-2-propyl-benzoic acid]
25 nM	51 nM	CCCc1cc(-c2cc(NCCc3cc(F)c4sccc4c3)ncn2)ccc1C(=O)O [Example 389, 4-{6-[2-(7-Fluoro-benzo[b]thiophen-5-yl)-ethylamino]-pyrimidin-4-yl}-2-propyl-benzoic acid]
420 nM	343 nM	CCOc1cc(-c2cc(NCCc3ccc4ccsc4c3C)ncn2)ccc1C(=O)O [Example 470, 2-Ethoxy-4-{6-[2-(7-methyl-benzo[b]thiophen-6-yl)-ethylamino]-pyrimidin-4-yl}-benzoic acid]
19 nM	131 nM	CCOc1cc(-c2cc(NCCc3cc(C)c4sccc4c3)ncn2)sc1C(=O)O [Example 391, 3-Ethoxy-5-{6-[2-(7-methyl-benzo[b]thiophen-5-yl)-ethylamino]-pyrimidin-4-yl}-thiophene-2-carboxylic acid]
539 nM	684 nM	O=C(O)c1ccc(-c2cc(NCCc3cc(F)c4sccc4c3)ncn2)c2cc[nH]c12 [Example 558, 4-{6-[2-(7-Fluoro-benzo[b]thiophen-5-yl)-ethylamino]-pyrimidin-4-yl}-1H-indole-7-carboxylic acid]
155 nM	51 nM	CCCc1cc(-c2cc(NCCc3cc4c(cc3OC)OCCO4)ncn2)ccc1C(=O)O [Example 379, 4-{6-[2-(7-Methoxy-2,3-dihydro-benzo[1,4]dioxin-6-yl)-ethylamino]-pyrimidin-4-yl}-2-propyl-benzoic acid]
108 nM	32 nM	CCc1cc(-c2cc(NCCc3c(OC)cc4ccccc4c3C)ncn2)ccc1C(=O)O [Example 446, 2-Ethyl-4-{6-[2-(3-methoxy-1-methyl-naphthalen-2-yl)-ethylamino]-pyrimidin-4-yl}-benzoic acid]
159 nM	297 nM	CCOc1cc(-c2cc(NCCc3ccc4ccccc4c3C)ncn2)ccc1Cc1noc(=O)[nH]1 [Example 566, 3-(2-Ethoxy-4-{6-[2-(1-methyl-naphthalen-2-yl)-ethylamino]-pyrimidin-4-yl}-benzyl)-[1,2,4]oxadiazol-5(4H)-one]

IC50 (PTGER4 (EP4))	IC50 (PTGER2 (EP2))	SMILES
13 nM	45 nM	CCCc1cc(-c2cc(NCCc3c(OC)cc4ccccc4c3C)ncn2)ccc1CC(=O)O [Example 388, (4-{6-[2-(3-Methoxy-1-methyl-naphthalen-2-yl)-ethylamino]-pyrimidin-4-yl}-2-propyl-phenyl)-acetic acid]
80 nM	302 nM	COc1cc(-c2cc(NCCc3cc(F)c4sccc4c3)ncn2)ccc1-c1cc(O)no1 [Example 553, 5-(4-{6-[2-(7-Fluoro-benzo[b]thiophen-5-yl)-ethylamino]-pyrimidin-4-yl}-2-methoxy-phenyl)-isoxazol-3-ol]
28 nM	203 nM	O=c1c(O)c(-c2ccc(-c3cc(NCCc4cc(F)c5sccc5c4)ncn3)cc2)c1=O [Example 536, 3-(4-{6-[2-(7-Fluoro-benzo[b]thiophen-5-yl)-ethylamino]-pyrimidin-4-yl}-phenyl)-4-hydroxy-cyclobut-3-ene-1,2-dione]
52 nM	334 nM	CCOc1cc(-c2cc(NCCc3c(OC)cc4ccccc4c3C)ncn2)cc(F)c1CC(=O)O [Example 374, (2-Ethoxy-6-fluoro-4-{6-[2-(3-methoxy-1-methyl-naphthalen-2-yl)-ethylamino]-pyrimidin-4-yl}-phenyl)-acetic acid]
116 nM	187 nM	CCOc1cc(-c2cc(NCCc3cc(F)c4sccc4c3)ncn2)ccc1C(=O)O [Example 361, 2-Ethoxy-4-{6-[2-(7-fluoro-benzo[b]thiophen-5-yl)-ethylamino]-pyrimidin-4-yl}-benzoic acid]
110 nM	624 nM	O=C(O)c1cccc2[nH]c(-c3cc(NCCc4cc(F)c5sccc5c4)ncn3)cc12 [Example 531, 2-{6-[2-(7-Fluoro-benzo[b]thiophen-5-yl)-ethylamino]-pyrimidin-4-yl}-1H-indole-4-carboxylic acid]
90 nM	17 nM	CCOc1cc2c(cc1CCNc1cc(-c3ccc(CC(=O)O)c(OC(F)(F)F)c3)ncn1)OCCO2 [Example 427, (4-{6-[2-(7-Ethoxy-2,3-dihydro-benzo[1,4]dioxin-6-yl)-ethylamino]-pyrimidin-4-yl}-2-trifluoromethoxy-phenyl)-acetic acid]
42 nM	871 nM	CCOc1cc(-c2cc(NCCc3cc(F)c4sccc4c3)ncn2)sc1CCC(=O)O [Example 535, 3-(3-Ethoxy-5-{6-[2-(7-fluoro-benzo[b]thiophen-5-yl)-ethylamino]-pyrimidin-4-yl}-thiophen-2-yl)-propionic acid]
212 nM	817 nM	CCOc1c(CC(=O)O)ccc(-c2cc(NCCc3cc(F)c4sccc4c3)ncn2)c1F [Example 564, (2-Ethoxy-3-fluoro-4-{6-[2-(7-fluoro-benzo[b]thiophen-5-yl)-ethylamino]-pyrimidin-4-yl}-phenyl)-acetic acid]
35 nM	7 nM	CCCc1cc(-c2cc(NCCc3c(OC)cc4c(c3C)OCCO4)ncn2)ccc1CC(=O)O [Example 397, (4-{6-[2-(7-Methoxy-5-methyl-2,3-dihydro-benzo[1,4]dioxin-6-yl)-ethylamino]-pyrimidin-4-yl}-2-propyl-phenyl)-acetic acid]
3 nM	3 nM	CCOc1cc(-c2cc(NCCc3cc4ccsc4c(F)c3OC)ncn2)sc1C(=O)O [Example 484, 3-Ethoxy-5-{6-[2-(7-fluoro-6-methoxy-benzo[b]thiophen-5-yl)-ethylamino]-pyrimidin-4-yl}-thiophene-2-carboxylic acid]
144 nM	90 nM	CCOc1cc(-c2cc(NCCc3ccc4scc(Cl)c4c3)ncn2)ccc1C(=O)O [Example 490, 4-{6-[2-(3-Chloro-benzo[b]thiophen-5-yl)-ethylamino]-pyrimidin-4-yl}-2-ethoxy-benzoic acid]
107 nM	19 nM	COc1cc2c(cc1CCNc1cc(-c3ccc(C(=O)O)c(OC4CC4)c3)ncn1)OCCO2 [Example 520, 2-Cyclopropoxy-4-{6-[2-(7-methoxy-2,3-dihydro-benzo[1,4]dioxin-6-yl)-ethylamino]-pyrimidin-4-yl}-benzoic acid]
76 nM	670 nM	CCOc1cc(-c2cc(NCCc3cc(F)c4sccc4c3)ncn2)ccc1C(=O)C(=O)O [Example 537, (2-Ethoxy-4-{6-[2-(7-fluoro-benzo[b]thiophen-5-yl)-ethylamino]-pyrimidin-4-yl}-phenyl)-oxo-acetic acid]
19 nM	246 nM	CCCc1cc(-c2cc(NCCc3cc(F)c4sccc4c3)ncn2)sc1CC(=O)O [Example 556, (5-{6-[2-(7-Fluoro-benzo[b]thiophen-5-yl)-ethylamino]-pyrimidin-4-yl}-3-propyl-thiophen-2-yl)-acetic acid]

SMILES	IC50 (PTGER4 (EP4))	IC50 (PTGER2 (EP2))
O=C(O)c1ccc(-c2cc(NCCc3ccc4scc(Cl)c4c3)ncn2)cc1OC1CCC1 [Example 430, 4-{6-[2-(3-Chloro-benzo[b]thiophen-5-yl)-ethylamino]-pyrimidin-4-yl}-2-cyclobutoxy-benzoic acid]	66 nM	69 nM
